Reference: US20200247855A1, “THERAPY AND DIAGNOSTICS” (OXFORD UNIVERSITY INNOVATION LIMITED, priority 2017, published 2020)
Residues, ends and D or L forms follow the SMILES beside them. *: point of attachment. FITC = O=C1OC2(c3ccc(O)cc3Oc3cc(O)ccc32)c2ccc(NC(=S)*)cc21

Target: T1, CCL8 (Homo sapiens, UniProt P80075)
T1 construct: SUMO (in-house protein only) (cleaved yes); made in house; host or cells: Escherichia coli RosettaGami 2 (DE3)
T1 sequence (P80075 24-99): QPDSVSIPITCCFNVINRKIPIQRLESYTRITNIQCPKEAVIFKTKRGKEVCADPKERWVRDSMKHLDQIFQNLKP
Test: Fluorescence polarisation (anisotropy) assay
Format: binding
Details: BK1.1FITC Ala mutants, CCL8
Excerpt: FIG. 14. Characterisation of P672_PEP-FITC by fluorescence polarisation. […] Residue C30 was mutated to A to avoid an unpaired cysteine residue. The residues corresponding to the above peptide are wholly contained within the CCL8-binding region of P672_RHIPU transferred in the hybrid evasin P672:EVA1 (SEQ ID 76, see FIG. 5). […] (SEQ ID NO: 90). FIG. 14(A). […] The curve was fitted to the two site-total and non-specific binding model in GraphPad Prism 6. Data are shown as mean and SEM of three independent experiments, with each independent experiment performed as three technical replicates. The affinity constant Kd was calculated in GraphPad Prism from the curve fit with the standard error reported.
FIG. 14(B). […] The measured fluorescence anisotropy (y-axis) of P672_PEP-FITC (50 nM) following binding to a fixed dose (1 μM)) of CCL7, CCL8, CCL18 and CXCL1 (negative control). […] Statistical significance was determined using one-way ANOVA with Sidak's correction for multiple comparisons using Graph Pad Prism 6. **=p<0.005, ****=P<0.00005, ns=not significant.
FIG. 15(C). […] In each case 100 μM (++) or […] (+) of P672_PEP was incubated with P672_PEP-FITC (50 nM)/chemokine (1 μM CCL7 and CCL18; 500 nM CCL8) and the resulting anisotropy measured. […] Experiment carried out in triplicate where each data point is the average of one experiment carried out in technical triplicate. Mean with SEM shown and statistical significance was determined using one-way ANOVA with Sidak's correction for multiple comparisons using Graph Pad Prism 6. *=p<0.05, ***=p<0.0005, ****=P<0.00005, ns=not significant.
Fluorescence polarization assays were performed using a Clariostar (BMG Tech) plate reader with the supplied FITC excitation and emission filters using 96 half area well plates (Corning). The buffer used (FP assay buffer) was 50 mM HEPES, 150 mM NaCl, 0.1% BSA, 0.002% TWEEN-20, 0.2% DMSO, pH 7.4 and the final volume in each well was 30 μL. Polarization was converted to anisotropy using the equation A=(2*P)/(3−P) where P is polarization and A is anisotropy. For each peptide tested the gain was set to 35 mP and adjusted to a well containing fluorescent peptide only. The polarization of the emitted light in the FITC emission channel was then determined. Experiments were performed as two technical and three biological replicates. Screening of P672 peptide fragments was achieved through incubation of each peptide (50 nM) with 1 μM CCL8 (Peprotech) for 30 minutes in FP assay buffer and the resulting anisotropy of the emitted light determined as above. The chemokine cross binding screen was performed by incubating 1 μM chemokine (Peprotech) with 50 nM BK1.1FITC for half an hour in FP assay buffer and the resulting anisotropy of the emitted light determined as above. […] The anisotropy was plotted as a function of CCL8 concentration and fitted to the equation: Y=Bmax*X/(KD+X)+NS*X+Background, where Y is the measured anisotropy, X is the concentration of CCL8 added, Bmax is the maximum binding, KD is the equilibrium dissociation constant, NS is the slope of the nonlinear regression and Background is the anisotropy when no CCL8 is present, in Graph Pad Prism. Displacement assays were carried out with CCL7, CCL8, and CCL18 (Peprotech, 1 μM). […] For all FP assays, the experiments were carried out as two technical and three biological replicates.

Compound	Fold change (Kd versus WT)
CC(C)[C@H](NC(=O)[C@@H]1CCCN1C(=O)[C@H](CCCCN)NC(=O)[C@H](Cc1ccccc1)NC(=O)[C@H](Cc1ccccc1)NC(=O)[C@H](CC(=O)O)NC(=O)[C@H](CCC(=O)O)NC(=O)[C@H](Cc1ccc(O)cc1)NC(=O)[C@H](CC(=O)O)NC(=O)[C@H](CCC(=O)O)NC(=O)[C@H](C)NC(=O)[C@H](CCC(=O)O)NC(=S)Nc1ccc2c(c1)C(=O)OC21c2ccc(O)cc2Oc2cc(O)ccc21)C(=O)N[C@H](C(=O)N[C@@H](C)C(=O)N[C@@H](Cc1ccc(O)cc1)C(=O)N[C@@H](Cc1ccccc1)C(N)=O)[C@@H](C)O [D18A] ({FITC}-EAEDYEDFFKPVTAYF-NH2)	2.5
CC(C)[C@H](NC(=O)[C@@H]1CCCN1C(=O)[C@H](CCCCN)NC(=O)[C@H](Cc1ccccc1)NC(=O)[C@H](Cc1ccccc1)NC(=O)[C@H](CC(=O)O)NC(=O)[C@H](CCC(=O)O)NC(=O)[C@H](Cc1ccc(O)cc1)NC(=O)[C@H](C)NC(=O)[C@H](CCC(=O)O)NC(=O)[C@H](CC(=O)O)NC(=O)[C@H](CCC(=O)O)NC(=S)Nc1ccc2c(c1)C(=O)OC21c2ccc(O)cc2Oc2cc(O)ccc21)C(=O)N[C@H](C(=O)N[C@@H](C)C(=O)N[C@@H](Cc1ccc(O)cc1)C(=O)N[C@@H](Cc1ccccc1)C(N)=O)[C@@H](C)O [D20A] ({FITC}-EDEAYEDFFKPVTAYF-NH2)	1.5
CC(C)[C@H](NC(=O)[C@@H]1CCCN1C(=O)[C@H](CCCCN)NC(=O)[C@H](Cc1ccccc1)NC(=O)[C@H](Cc1ccccc1)NC(=O)[C@H](C)NC(=O)[C@H](CCC(=O)O)NC(=O)[C@H](Cc1ccc(O)cc1)NC(=O)[C@H](CC(=O)O)NC(=O)[C@H](CCC(=O)O)NC(=O)[C@H](CC(=O)O)NC(=O)[C@H](CCC(=O)O)NC(=S)Nc1ccc2c(c1)C(=O)OC21c2ccc(O)cc2Oc2cc(O)ccc21)C(=O)N[C@H](C(=O)N[C@@H](C)C(=O)N[C@@H](Cc1ccc(O)cc1)C(=O)N[C@@H](Cc1ccccc1)C(N)=O)[C@@H](C)O [D23A] ({FITC}-EDEDYEAFFKPVTAYF-NH2)	1.5
CC(C)[C@H](NC(=O)[C@@H]1CCCN1C(=O)[C@H](CCCCN)NC(=O)[C@H](Cc1ccccc1)NC(=O)[C@H](Cc1ccccc1)NC(=O)[C@H](CC(=O)O)NC(=O)[C@H](CCC(=O)O)NC(=O)[C@H](Cc1ccc(O)cc1)NC(=O)[C@H](CC(=O)O)NC(=O)[C@H](CCC(=O)O)NC(=O)[C@H](CC(=O)O)NC(=O)[C@H](C)NC(=S)Nc1ccc2c(c1)C(=O)OC21c2ccc(O)cc2Oc2cc(O)ccc21)C(=O)N[C@H](C(=O)N[C@@H](C)C(=O)N[C@@H](Cc1ccc(O)cc1)C(=O)N[C@@H](Cc1ccccc1)C(N)=O)[C@@H](C)O [E17A] ({FITC}-ADEDYEDFFKPVTAYF-NH2)	1.2
CC(C)[C@H](NC(=O)[C@@H]1CCCN1C(=O)[C@H](CCCCN)NC(=O)[C@H](Cc1ccccc1)NC(=O)[C@H](Cc1ccccc1)NC(=O)[C@H](CC(=O)O)NC(=O)[C@H](CCC(=O)O)NC(=O)[C@H](Cc1ccc(O)cc1)NC(=O)[C@H](CC(=O)O)NC(=O)[C@H](C)NC(=O)[C@H](CC(=O)O)NC(=O)[C@H](CCC(=O)O)NC(=S)Nc1ccc2c(c1)C(=O)OC21c2ccc(O)cc2Oc2cc(O)ccc21)C(=O)N[C@H](C(=O)N[C@@H](C)C(=O)N[C@@H](Cc1ccc(O)cc1)C(=O)N[C@@H](Cc1ccccc1)C(N)=O)[C@@H](C)O [E19A] ({FITC}-EDADYEDFFKPVTAYF-NH2)	2.1
CC(C)[C@H](NC(=O)[C@@H]1CCCN1C(=O)[C@H](CCCCN)NC(=O)[C@H](Cc1ccccc1)NC(=O)[C@H](Cc1ccccc1)NC(=O)[C@H](CC(=O)O)NC(=O)[C@H](C)NC(=O)[C@H](Cc1ccc(O)cc1)NC(=O)[C@H](CC(=O)O)NC(=O)[C@H](CCC(=O)O)NC(=O)[C@H](CC(=O)O)NC(=O)[C@H](CCC(=O)O)NC(=S)Nc1ccc2c(c1)C(=O)OC21c2ccc(O)cc2Oc2cc(O)ccc21)C(=O)N[C@H](C(=O)N[C@@H](C)C(=O)N[C@@H](Cc1ccc(O)cc1)C(=O)N[C@@H](Cc1ccccc1)C(N)=O)[C@@H](C)O [E22A] ({FITC}-EDEDYADFFKPVTAYF-NH2)	4.0
CC(C)[C@H](NC(=O)[C@@H]1CCCN1C(=O)[C@H](CCCCN)NC(=O)[C@H](Cc1ccccc1)NC(=O)[C@H](C)NC(=O)[C@H](CC(=O)O)NC(=O)[C@H](CCC(=O)O)NC(=O)[C@H](Cc1ccc(O)cc1)NC(=O)[C@H](CC(=O)O)NC(=O)[C@H](CCC(=O)O)NC(=O)[C@H](CC(=O)O)NC(=O)[C@H](CCC(=O)O)NC(=S)Nc1ccc2c(c1)C(=O)OC21c2ccc(O)cc2Oc2cc(O)ccc21)C(=O)N[C@H](C(=O)N[C@@H](C)C(=O)N[C@@H](Cc1ccc(O)cc1)C(=O)N[C@@H](Cc1ccccc1)C(N)=O)[C@@H](C)O [F24A] ({FITC}-EDEDYEDAFKPVTAYF-NH2)	1.5
CC(C)[C@H](NC(=O)[C@@H]1CCCN1C(=O)[C@H](CCCCN)NC(=O)[C@H](C)NC(=O)[C@H](Cc1ccccc1)NC(=O)[C@H](CC(=O)O)NC(=O)[C@H](CCC(=O)O)NC(=O)[C@H](Cc1ccc(O)cc1)NC(=O)[C@H](CC(=O)O)NC(=O)[C@H](CCC(=O)O)NC(=O)[C@H](CC(=O)O)NC(=O)[C@H](CCC(=O)O)NC(=S)Nc1ccc2c(c1)C(=O)OC21c2ccc(O)cc2Oc2cc(O)ccc21)C(=O)N[C@H](C(=O)N[C@@H](C)C(=O)N[C@@H](Cc1ccc(O)cc1)C(=O)N[C@@H](Cc1ccccc1)C(N)=O)[C@@H](C)O [F25A] ({FITC}-EDEDYEDFAKPVTAYF-NH2)	4.6
CC(C)[C@H](NC(=O)[C@@H]1CCCN1C(=O)[C@H](CCCCN)NC(=O)[C@H](Cc1ccccc1)NC(=O)[C@H](Cc1ccccc1)NC(=O)[C@H](CC(=O)O)NC(=O)[C@H](CCC(=O)O)NC(=O)[C@H](Cc1ccc(O)cc1)NC(=O)[C@H](CC(=O)O)NC(=O)[C@H](CCC(=O)O)NC(=O)[C@H](CC(=O)O)NC(=O)[C@H](CCC(=O)O)NC(=S)Nc1ccc2c(c1)C(=O)OC21c2ccc(O)cc2Oc2cc(O)ccc21)C(=O)N[C@H](C(=O)N[C@@H](C)C(=O)N[C@@H](Cc1ccc(O)cc1)C(=O)N[C@@H](C)C(N)=O)[C@@H](C)O [F32A] ({FITC}-EDEDYEDFFKPVTAYA-NH2)	2.3
CC(C)[C@H](NC(=O)[C@@H]1CCCN1C(=O)[C@H](C)NC(=O)[C@H](Cc1ccccc1)NC(=O)[C@H](Cc1ccccc1)NC(=O)[C@H](CC(=O)O)NC(=O)[C@H](CCC(=O)O)NC(=O)[C@H](Cc1ccc(O)cc1)NC(=O)[C@H](CC(=O)O)NC(=O)[C@H](CCC(=O)O)NC(=O)[C@H](CC(=O)O)NC(=O)[C@H](CCC(=O)O)NC(=S)Nc1ccc2c(c1)C(=O)OC21c2ccc(O)cc2Oc2cc(O)ccc21)C(=O)N[C@H](C(=O)N[C@@H](C)C(=O)N[C@@H](Cc1ccc(O)cc1)C(=O)N[C@@H](Cc1ccccc1)C(N)=O)[C@@H](C)O [K26A] ({FITC}-EDEDYEDFFAPVTAYF-NH2)	0.8
CC(C)[C@H](NC(=O)[C@@H]1CCCN1C(=O)[C@H](CCCCN)NC(=O)[C@H](Cc1ccccc1)NC(=O)[C@H](Cc1ccccc1)NC(=O)[C@H](CC(=O)O)NC(=O)[C@H](CCC(=O)O)NC(=O)[C@H](Cc1ccc(O)cc1)NC(=O)[C@H](CC(=O)O)NC(=O)[C@H](CCC(=O)O)NC(=O)[C@H](CC(=O)O)NC(=O)[C@H](CCC(=O)O)NC(=S)Nc1ccc2c(c1)C(=O)OC21c2ccc(O)cc2Oc2cc(O)ccc21)C(=O)N[C@@H](C)C(=O)N[C@@H](C)C(=O)N[C@@H](Cc1ccc(O)cc1)C(=O)N[C@@H](Cc1ccccc1)C(N)=O [T29A] ({FITC}-EDEDYEDFFKPVAAYF-NH2)	2.0
